Results from BigSolDB 2.1.

N[C@H](Cc1c[nH]c2ccccc12)C(=O)O
solubility (mole fraction)
Conditions	283.15 K	288.15 K	293.15 K	298.15 K	303.15 K	308.15 K	313.15 K	318.15 K	323.15 K	328.15 K
in DMSO	–	–	0.00359	0.00381	0.00464	0.00551	0.00596	0.00705	0.00778	0.00911
in acetonitrile	5.75e-05	6.84e-05	8.14e-05	0.000107	0.000128	0.00015	0.000206	0.000241	0.000307	0.000372
in ethyl acetate	0.000238	0.000302	0.000376	0.000476	0.000541	0.000699	0.000837	0.00115	0.00141	0.0018
in ethylene glycol	0.00148	0.00167	0.00246	0.00318	0.00437	0.00547	0.00804	0.00999	0.0125	0.0161
in n-butanol	1.97e-05	2.21e-05	2.99e-05	3.52e-05	4.81e-05	5.68e-05	7.9e-05	9.26e-05	0.00012	0.000137
in n-octanol	1.36e-05	1.53e-05	1.88e-05	2.49e-05	2.8e-05	3.61e-05	4.02e-05	4.83e-05	5.87e-05	6.53e-05
in n-propanol	4.51e-05	6.23e-05	7.27e-05	8.69e-05	0.000111	0.000127	0.000157	0.000177	0.000219	0.000244
